Measurements reported in patent US20110112282A1, “IDO INHIBITORS AND THERAPEUTIC USES THEREOF” (priority 2008, published 2011).

Biological target: purified recombinant IDO (Homo sapiens, UniProt P14902)
Experiment: Enzymatic IDO inhibition assay (Takikawa et al., modified; kynurenine by HPLC)
Assay type: biochemical
Details: result in words; oxidized dimeric analogues
Method: The enzymatic inhibition assays were performed as described by Takikawa et al. [Takikawa, O.; Kuroiwa, T.; Yamazaki, F.; Kido, R. J Biol Chem, 1988, 263, 2041-2048.] with some modifications. Briefly, the reaction mixture (100 μl) contained potassium phosphate buffer (100 mM, pH 6.5) ascorbic acid (20 mM), catalase (200 units/ml), methylene blue (10 μM), purified recombinant IDO (2 ng/μl), and L-Trp (200 μM). The inhibitors were serially diluted ranging from 0.1 to 1000 μM. The reaction was carried out at 37° C. for 60 min and stopped by the addition of 30% (w/v) trichloroacetic acid (40 μl). To convert the product of Trp dioxygenation by IDO, N-formylkynurenine, to spectroscopically detectable kynurenine, the tubes were incubated at 50° C. for 30 min, followed by a centrifugation at 10000 g for 20 min. Lastly, 100 μl of supernatant from each probe was transfered to another tube for HPLC analysis. The mobile phase for HPLC measurements consisted of 50% sodium citrate buffer (40 mM, pH 2.25) and 50% methanol with 400 μM SDS. The flow rate through the S5-ODS1 column was chosen to be 1 ml/min, and kynurenine was detected at a wavelength of 365 nm.

Sequence of purified recombinant IDO (P14902 whole entry): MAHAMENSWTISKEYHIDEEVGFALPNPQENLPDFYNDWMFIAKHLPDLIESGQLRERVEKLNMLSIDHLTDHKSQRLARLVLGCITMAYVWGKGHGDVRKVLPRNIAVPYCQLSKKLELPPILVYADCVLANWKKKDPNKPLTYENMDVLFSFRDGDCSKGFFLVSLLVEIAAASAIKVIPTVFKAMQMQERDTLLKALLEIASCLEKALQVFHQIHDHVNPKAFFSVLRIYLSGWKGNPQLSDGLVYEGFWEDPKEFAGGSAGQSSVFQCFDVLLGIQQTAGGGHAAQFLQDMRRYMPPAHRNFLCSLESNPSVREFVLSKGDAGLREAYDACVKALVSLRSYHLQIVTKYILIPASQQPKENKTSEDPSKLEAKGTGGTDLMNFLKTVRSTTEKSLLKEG

Row | activity in vitro | SMILES
1 | excellent activity | CC(C)/C=C1/C=C(C2=C/C(=N\C(C)C)c3ccccc3C2=O)C(=O)c2ccccc21 [Example 23]
2 | excellent activity | CCC(CC)CC1C=C(C2=CC(CC(CC)CC)c3ccccc3C2=O)C(=O)c2ccccc21 (centres unmarked) [Example 24]
